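Compound exposure: 48 hours, 5 concentrations, 96-well plates. GI50 marks 50% less growth.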 Active and inactive are the calls of the source. Rule as the data show it: active = GI50 up to about 1.1 µM and inactive = higher.
Key:
Assay in all cases: inhibition of tumour cell growth, NCI panel, 48 h
[1] = tested on: ACHN
[2] = tested on: CCRF-CEM
[3] = tested on: EKVX
[4] = tested on: Hs-578T
[5] = tested on: K562
[6] = tested on: LOX IMVI
[7] = tested on: MCF7
[8] = tested on: MOLT-4
[9] = tested on: NCI-H23
[10] = tested on: NCI-H460
[11] = tested on: NCI/ADR-RES
[12] = tested on: OVCAR-3
[13] = tested on: SF-268
[14] = tested on: SF-539
[15] = tested on: SK-MEL-28
[16] = tested on: SN12C
[17] = tested on: HL-60
[18] = tested on: SK-MEL-5
[19] = tested on: NCI-H522

Measured: GI50

O=[N+]([O-])/C(C(Cl)=C(Cl)Cl)=C(\NCc1ccccc1)Sc1ccccc1
inactive: [1] 35.7 µM | [2] 32 µM | [3] 38.4 µM | [4] 15.1 µM | [5] 63 µM | [6] 13.7 µM | [7] 32.4 µM | [8] > 100 µM | [9] 20.5 µM | [10] 37 µM | [11] 24.5 µM | [12] 17.6 µM | [13] 24.3 µM | [14] 19.9 µM | [15] 17.3 µM | [16] 35.2 µM

COc1ccc2c(c1)C(N)=C(c1ccccc1OC)C2=O
inactive: [1] > 100 µM | [2] > 100 µM | [3] > 100 µM | [17] 23.5 µM | [4] > 100 µM | [5] > 100 µM | [6] > 100 µM | [7] > 100 µM | [8] 75.7 µM | [9] > 100 µM | [10] > 100 µM | [11] > 100 µM | [12] > 100 µM | [13] > 100 µM | [14] > 100 µM | [15] > 100 µM | [16] > 100 µM

Cc1ccc2nc(NC(=O)/C(Cc3nc4ccc(Cl)cc4nc3O)=N\NC(C)(C)C)sc2c1
inactive: [1] > 100 µM | [2] > 100 µM | [17] > 100 µM | [4] 18.2 µM | [5] > 100 µM | [6] > 100 µM | [7] > 100 µM | [8] > 100 µM | [9] > 100 µM | [10] > 100 µM | [11] > 100 µM | [12] > 100 µM | [13] 97.9 µM | [14] > 100 µM | [15] > 100 µM | [18] > 10 µM | [16] > 100 µM

CC1(C)CC(=O)C(=CN2C(=O)CNC2=S)C(=O)C1
inactive: [1] > 100 µM | [2] > 100 µM | [3] > 100 µM | [17] > 100 µM | [4] > 100 µM | [7] > 100 µM | [8] > 100 µM | [9] > 100 µM | [10] > 100 µM | [19] > 100 µM | [11] > 100 µM | [12] > 100 µM | [13] > 100 µM | [14] > 100 µM | [18] > 100 µM | [16] > 100 µM

COC(=O)[C@]12C3=C(O)C(=O)C[C@H]1OC[C@H]2C=CC3
inactive: [1] > 100 µM | [3] > 100 µM | [4] > 100 µM | [5] 64 µM | [6] > 100 µM | [7] > 100 µM | [9] > 100 µM | [10] > 100 µM | [19] 20.1 µM | [11] > 100 µM | [12] > 100 µM | [13] > 100 µM | [15] > 100 µM | [18] > 100 µM | [16] > 100 µM

COC(=O)C(=CNC(N)=O)C(=O)OC
inactive: [1] > 100 µM | [2] > 100 µM | [3] > 100 µM | [4] 63.4 µM | [5] > 100 µM | [6] > 100 µM | [7] > 100 µM | [8] > 100 µM | [9] > 100 µM | [10] > 100 µM | [19] > 100 µM | [11] > 100 µM | [12] > 100 µM | [13] > 100 µM | [14] > 100 µM | [15] > 100 µM | [18] > 100 µM | [16] > 100 µM

O=[N+]([O-])c1cccc(/N=N/c2c(O)c(S(=O)(=O)O)cc3cc(S(=O)(=O)O)ccc23)c1
inactive: [1] > 100 µM | [2] > 100 µM | [3] > 100 µM | [17] > 100 µM | [4] > 100 µM | [5] > 100 µM | [7] 67.8 µM | [8] > 100 µM | [9] > 100 µM | [10] > 100 µM | [19] > 100 µM | [11] > 100 µM | [12] > 100 µM | [13] > 100 µM | [14] > 100 µM | [15] > 100 µM | [18] > 100 µM | [16] > 100 µM

N#C[C@H]1Nc2ccccc2[C@@H](O)C1O (stereo not given in full)
inactive: [1] > 100 µM | [2] > 100 µM | [3] > 100 µM | [17] > 100 µM | [4] > 100 µM | [5] > 100 µM | [6] > 100 µM | [7] > 100 µM | [8] > 100 µM | [9] > 100 µM | [10] > 100 µM | [11] > 100 µM | [12] > 100 µM | [13] > 100 µM | [14] > 100 µM | [15] > 100 µM | [18] > 100 µM | [16] > 100 µM

Source: ChEMBL document CHEMBL1201862, “PubChem BioAssay data set” (2004)
